# Results as given in patent US20070010582A1, “Use of N-chlorotaurine for treatment of oozing tissue deficiencies” (priority 2005, published 2007).
# Key:
# [1] = test system: oozing ear channel; experiment: Instillation/rinsing of the oozing ear channel with NCT solution after tympanoplasty (case reports); assay type: in vivo, human
# Source text: Rinsing the ear channel with NCT solution provokes in general a drying of the ear channel and the tympanoplastic within 1-2 days.
# A human patient with a traumatic perforation of the tympanic membrane was provided with a tympanoplasty. After removing incrustations and granulation tissue, the destroyed tympanic membrane was excised and substituted by a fascia temporalis. After taking away the tamponade, the microbiological culture of a swab from the reconstructed tympanic membrane and the ear channel was sterile. Subsequently, the oozing ear channel was treated one time daily for two days by instillation of 2 mL of aqueous 1% NCT solution. […] The complete epithelization was achieved 3 days earlier than by the conventional treatment with fuchsine.
# A human patient suffering from a perforation of the tympanic membrane caused by a chronic inflammation of the middle ear received tympanoplasty. After removing incrustations and granulation tissue, the destroyed tympanic membrane was excised and substituted by a fascia temporalis. After taking away the tamponade, the microbiological culture of a swab from the reconstructed tympanic membrane and the ear channel was sterile. Subsequently, the oozing and swollen ear channel was treated one time daily for five days by instillation of 2 mL of aqueous 1% NCT solution. […] The complete epithelization was achieved 3 days earlier than by the conventional treatment with fuchsine.
# [2] = test system: open leg ulcer with fibrous coating; experiment: Wound dressing soaked with NCT solution on open leg ulcer with fibrous coating (case report); assay type: in vivo, human; conditions: single patient
# Protocol: A human patient suffering from an open leg ulcer with fibrous coating caused by a burn accident was treated two times daily with wound dressing soaked with aqueous 1% NCT solution. […] Microbiological cultures of swabs before and after therapy were sterile.
# [3] = test system: outer ear canal; experiment: Pilot study (open phase IIa), postoperative irrigation of external auditory canal after tympanoplasty: efficacy; assay type: in vivo, human; conditions: 12 patients
# Protocol: Local irrigations of the external auditory canal with 3 ml of 1% N-chlorotaurine solution were performed once daily until the canal was dry.
# An open phase IIa study was performed in 12 patients after tympanoplasty. They received a single-shot antibiotic therapy with 2 g Spizef (cefotiam) i.v. perioperatively.
# (§1) After removing the ear-tamponade, which remained in place for 2 to 3 weeks postoperatively, 3 ml of the 1% aqueous NCT solution was applied once daily to the outer ear canal. The endpoint of the treatment was defined as a completely dry canal, corresponding to a clinical score of zero (see below for scoring).
# The primary criterion for the judgement of the status of the external meatus was a six-scale clinical score (0-5) based on visual observation via ear microscopy (zero=dry outer ear canal; 5=moist outer ear canal with inflammation).
# Clinical examination of the outer ear canal was performed daily for detection of moisture, signs of infection, and judgement of epithelisation of the neo-tympanon.
# A completely dry external meatus (score zero) was considered as the endpoint criterion for the termination of the study.
# Moisture and inflammation of the external auditory canal during and after irrigation with NCT were compared to those before treatment using the Wilcoxon test. P-values <0.05 were considered to indicate statistical significance. Due to the limited number of patients no corrections for multiple comparisons were applied.
# [4] = Pilot study (open phase IIa) after tympanoplasty: tolerability; assay type: in vivo, human; conditions: 12 patients
# Protocol: as §1
# The second criterion was subjective pain, ascertained by a visual analogue scale.
# Before and at the end of the study an audiogram was performed in all patients.
# All subjects completed the study.
# [5] = pH of aqueous NCT solution; assay type: physicochemical; conditions: no buffers
# [6] = Storage stability of aqueous NCT solution; assay type: physicochemical; conditions: 1% (55 mM) aqueous solution stored at 2-4° C.
# Protocol: Pure NCT as a crystalline sodium salt was dissolved in sterile distilled water to a concentration of 1% (55 mM). Purity was verified by iodometric titration and spectrophotometry. […] Solutions were stored at 2-4° C., where they are stable for 1 year, and allowed to reach room temperature before application to the patients.
# [7] = single patient after tympanoplasty, 2 mL aqueous 1% NCT solution one time daily
compound,measurement,setting,value
"O=S(=O)(O)CCNCl [NCT, N-chlorotaurine]",period of oozing subsequent to operations,"[1]; e.g. otoplastic operations, general statement",reduced the period of oozing
same,drying of the ear channel and the tympanoplastic,"[1]; rinsing the ear channel with NCT solution, general statement",1 to 2 days
same,time after which oozing ceased,"[1]; single patient after tympanoplasty, 2 mL aqueous 1% NCT solution instilled one time daily",three
same,time after which swelling ceased,"[1]; single patient after tympanoplasty, 2 mL aqueous 1% NCT solution instilled one time daily for five days",two
same,complete epithelization achieved earlier than by conventional treatment with fuchsine,[1]; [7],3 days
same,incorporation of the temporal fascia,[1]; [7],proceeded without problems
same,treatment time after which fibrous coating disappeared,"[2]; burn accident, dressing soaked with aqueous 1% NCT solution two times daily",three
same,microbiological cultures of swabs before and after therapy,[2]; aqueous 1% NCT solution two times daily,sterile
same,healing process,[2]; dressing soaked with aqueous 1% NCT solution two times daily,went on without problems
same,epithelisation of the new tympanon on ear microscopy,[3]; 3 ml 1% NCT once daily,proceeded regularly without granulation
same,infection in the postoperative course,[3]; 3 ml 1% NCT once daily,No infection occurred
same,necessary time for achieving a score of zero (range),[3]; 3 ml 1% NCT once daily,2 to 5 days
same,time needed for complete epithelisation (mean±SD),[3]; 3 ml 1% NCT once daily,22.6 ± 3.5 days
same,time needed for complete epithelisation (range),[3]; 3 ml 1% NCT once daily,18 to 31 days
same,average clinical score (0-5),"[3]; 3 ml 1% NCT once daily, days 2-5 vs day 1, Wilcoxon p=0,001-0,002",decreased daily
same,necessary time for achieving a score of zero (mean±SD),"[3]; 3 ml 1% NCT once daily, score zero = dry outer ear canal",2.75 ± 0.87 days
same,drying of the outer ear canal,[3]; 3 ml 1% aqueous NCT once daily,Rapid drying of the outer ear canal was detected in all patients
same,allergic reactions during the whole period of treatment,[4]; 3 ml 1% NCT once daily,no signs of allergic reactions
same,damage to the inner ear (audiogram before and after treatment),[4]; 3 ml 1% NCT once daily,no signs of damage to the inner ear
same,dizziness or nystagmus,[4]; 3 ml 1% NCT once daily,No dizziness or nystagmus occurred
same,subjective pain (visual analogue scale),[4]; 3 ml 1% NCT once daily,without occurrence of any pain
same,tolerability of therapy,[4]; 3 ml 1% NCT once daily to outer ear canal,tolerated very well
same,pH of aqueous solutions,[5],8
same,stability of solutions on storage,[6],1 year
